System: A549
Assay: Cytotoxicity against human A549 cells after 2 days by AlamarBlue assay
Settings: A549, 48 h

SMILES	IC50 [nM]
COC1=C2C[C@@H](C)C[C@H](OC)[C@H](O)[C@@H](C)/C=C(\C)[C@H](OC(N)=O)[C@@H](OC)/C=C\C=C(/C)C(=O)NC(=CC1=O)C2=O [GELDANAMYCIN]	150
CO[C@H]1[C@@H](OC)C[C@H](C)[C@@H](OC)C2=CC(=O)C=C(NC(=O)/C(C)=C/C=C/[C@H](OC)[C@@H](OC(N)=O)/C(C)=C/[C@@H]1C)C2=O [HERBIMYCIN]	150

Source: ChEMBL document CHEMBL2417371, “Herbimycins D-F, ansamycin analogues from Streptomyces sp. RM-7-15” (J Nat Prod, 2013)
